Laboratory results as given in PubChem BioAssay AID1963853 (Molecular Pharmacology Branch, DTP, NCI, 2024).
“And” between values parts separate entries of the source, which are not always exact repeats. Equal values may be shown once.

Tested on: 266295-075-R-J1-PDC spheroid viability
Test: Anticancer human tumor 266295-075-R-J1-PDC patient-derived head and neck squamous carcinoma cell line growth inhibition [POLQ]
Settings: spheroids with HUVEC and MSC; for viability, T/C: stronger effect = lower value
Method: Multicellular complex tumor spheroid response to Polymerase (POL) inhibitors (novobiocin, ART-558, RP6685) in combination with a variety of drugs and investigational agents in selected tumor cell lines
The POL inhibitors (novobiocin, ART-558, and RP6685) were evaluated both individually and in combination with standard of care and investigational anticancer small molecules within a complex spheroid model of solid tumors. . Complex spheroids include a stromal component modeled by human endothelial cells (HUVEC) and fibroblasts modeled by human mesenchymal stem cells (MSCs). The concentration ranges selected for each drug and investigational agent were based upon clinically achievable concentrations if the clinical Cmax of the agent was known.
Compounds. The drugs and investigational agents: novobiocin (NSC847541), ART-558 (NSC835418), RP-6685 (NSC848927), peposertib (NSC802822), ceralasertib (NSC780249), elimusertib (NSC800525), camonsertib (NSC841442), AZD-1390 (NSC803789), olaparib (NSC753686), talazoparib (NSC767125), rucaparib (NSC756644), sotorasib (NSC818433), MRTX-1133 (NSC836407), SN-38 (NSC673596), topotecan (NSC609699), epotoside (NSC141540), doxorubicin (NSC123127), gemcitabine (NSC613327), 5-fluorouracil (NSC19893), paclitaxel (NSC125973), vemurafenib (NSC761431), MSA-2 (NSC828583), SN-011 (NSC837082), adavosertib (NSC754352), prexasertib (NSC758257), carboplatin (NSC241240) and oxaliplatin (NSC266046), were obtained from the National Cancer Institute (NCI) Developmental Therapeutics Program Chemical Repository (21). The FDA-approved anticancer drug set is available from the Developmental Therapeutics Program at https://dtp.cancer.gov/organization/dscb/obtaining/. […] The stock solutions were prepared in dimethyl sulfoxide (DMSO, Sigma-Aldrich, St. Louis, MO, cat. D2650), except for the platinum compounds which were prepared in saline (Quality Biological, Gaithersburg, MD, cat. 114-055-101), at 800-fold the tested concentration and stored at -70 degrees C prior to their use. All drugs and investigational agents were tested over a range starting from a high concentration at or near the clinical Cmax and decreasing in half-log increments. If the clinical Cmax for an agent had not been determined, the highest concentration tested was 10 microM, except for SN-38, which was tested at a high concentration of 1 microM.
Cell Culture. All cells were maintained in an incubator at 37 degrees C and 5% CO2 with 95% humidity. The PDC lines were cultured according to standard operating procedures established by the NCI PDMR (https://pdmr.cancer.gov). Table 3 of the manuscript, lists the cell lines along with the number of the three cell types plated to form the mct-spheroids and media for tumor cell growth. After thawing, all PDC lines, except 997537-175-T-J1-PDC and 415267-285-R-J2-PDC, were cultured in Matrigel-coated flasks prepared with a working solution of 1X Ham's F-12 nutrient mix, without supplementation (Thermo Fisher Scientific, cat. 11765054), 100 U/mL penicillin-streptomycin (Thermo Fisher Scientific, cat. 15140122), and 2.5% Matrigel (Corning Inc., Corning, NY, cat. 354248) for the first three passages. The two PDC lines 997537-175-T-J1-PDC and 415267-285-R-J2-PDC were cultured on uncoated flasks. The 857933-349-R-J2-PDC line was cultured in 6C/Colon 1B media containing advanced DMEM/F-12 (Thermo Fisher Scientific, cat. 12634028), 10 mM HEPES (Thermo Fisher Scientific, cat. 15630080), 1X GlutaMAX supplement (Thermo Fisher Scientific, cat. 35050061), 0.1 mg/mL primocin (InvivoGen, San Diego, CA, cat. ant-pm-2), 10% defined fetal bovine serum, heat inactivated (HyClone Laboratories Inc., Logan, UT, cat. SH30070.03HI), 50% L-WRN conditioned media (ATCC, cat. CRL-3276), 1.25 mM N-Acetyl-L-cysteine (Sigma-Aldrich, cat. A9165), 10 mM nicotinamide (Sigma-Aldrich, cat. N0636), 1X B-27 supplement (Thermo Fisher Scientific, cat. 17504044), 1X N-2 supplement (Thermo Fisher Scientific, cat. […]
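Also: spheroids exposed to compounds for seven days before readout.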

C=CC(=O)N1CCN(c2nc(=O)n(-c3c(C)ccnc3C(C)C)c3nc(-c4c(O)cccc4F)c(F)cc23)C(C)C1 (stereo not drawn) + COC1C(OC(N)=O)C(O)C(Oc2ccc3c(O)c(NC(=O)c4ccc(O)c(CC=C(C)C)c4)c(=O)oc3c2C)OC1(C)C
IC50 (curve of first compound, second compound 0.0316 µM): > 10 µM | IC50 (curve of first compound, second compound 0.1 µM): > 10 µM | IC50 (curve of first compound, second compound 0.316 µM): > 10 µM | IC50 (curve of first compound, second compound 1 µM): > 10 µM | IC50 (curve of first compound, second compound 3.16 µM): > 10 µM | IC50 (curve of first compound, second compound 10 µM): > 10 µM | viability, T/C (second compound 0.0316 µM, first compound 0.0316 µM): 88.8% | viability, T/C (second compound 0.0316 µM, first compound 0.1 µM): 94.7% | viability, T/C (second compound 0.0316 µM, first compound 0.316 µM): 133% | viability, T/C (second compound 0.0316 µM, first compound 1 µM): 118% | viability, T/C (second compound 0.0316 µM, first compound 3.16 µM): 112% | viability, T/C (second compound 0.0316 µM, first compound 10 µM): 112% | viability, T/C (second compound 0.1 µM, first compound 0.0316 µM): 98.7% | viability, T/C (second compound 0.1 µM, first compound 0.1 µM): 90.6% | viability, T/C (second compound 0.1 µM, first compound 0.316 µM): 94% | viability, T/C (second compound 0.1 µM, first compound 1 µM): 104% | viability, T/C (second compound 0.1 µM, first compound 3.16 µM): 96% | viability, T/C (second compound 0.1 µM, first compound 10 µM): 129% | viability, T/C (second compound 0.316 µM, first compound 0.0316 µM): 96.9% | viability, T/C (second compound 0.316 µM, first compound 0.1 µM): 103% | viability, T/C (second compound 0.316 µM, first compound 0.316 µM): 104% | viability, T/C (second compound 0.316 µM, first compound 1 µM): 106% | viability, T/C (second compound 0.316 µM, first compound 3.16 µM): 125% | viability, T/C (second compound 0.316 µM, first compound 10 µM): 105% | viability, T/C (second compound 1 µM, first compound 0.0316 µM): 85.9% | viability, T/C (second compound 1 µM, first compound 0.1 µM): 114% | viability, T/C (second compound 1 µM, first compound 0.316 µM): 93.4% | viability, T/C (second compound 1 µM, first compound 1 µM): 106% | viability, T/C (second compound 1 µM, first compound 3.16 µM): 139% | viability, T/C (second compound 1 µM, first compound 10 µM): 124% | viability, T/C (second compound 3.16 µM, first compound 0.0316 µM): 92.2% | viability, T/C (second compound 3.16 µM, first compound 0.1 µM): 98.4% | viability, T/C (second compound 3.16 µM, first compound 0.316 µM): 108% | viability, T/C (second compound 3.16 µM, first compound 1 µM): 112% | viability, T/C (second compound 3.16 µM, first compound 3.16 µM): 116% | viability, T/C (second compound 3.16 µM, first compound 10 µM): 117% | viability, T/C (second compound 10 µM, first compound 0.0316 µM): 97% | viability, T/C (second compound 10 µM, first compound 0.1 µM): 79.3% | viability, T/C (second compound 10 µM, first compound 0.316 µM): 92.5% | viability, T/C (second compound 10 µM, first compound 1 µM): 122% | viability, T/C (second compound 10 µM, first compound 3.16 µM): 109% | viability, T/C (second compound 10 µM, first compound 10 µM): 114%

O=c1[nH]cc(F)c(=O)[nH]1
viability, T/C (compound 0.0316 µM): 98.7% and 96% and 115% | viability, T/C (compound 0.1 µM): 89.9% and 91.2% and 95.8% | viability, T/C (compound 0.316 µM): 86.7% and 97.9% and 89.4% | viability, T/C (compound 1 µM): 89.8% and 116% and 102% | viability, T/C (compound 3.16 µM): 80.7% and 102% and 94.3% | viability, T/C (compound 10 µM): 89.4% and 89% and 84.3% | IC50 (curve of compound): > 10 µM

CC1COCCN1c1cc(C2(S(C)(=N)=O)CC2)nc(-c2ccnc3[nH]ccc23)n1 (stereo not drawn)
viability, T/C (compound 0.0316 µM): 92.3% and 97.5% and 86.5% | viability, T/C (compound 0.1 µM): 95.2% and 93.2% and 93.5% | viability, T/C (compound 0.316 µM): 89.9% and 85.6% and 97.6% | viability, T/C (compound 1 µM): 83.2% and 80% and 78.7% | viability, T/C (compound 3.16 µM): 73.2% and 87.5% and 76.5% | viability, T/C (compound 10 µM): 55.6% and 56% and 54.7% | IC50 (curve of compound): > 10 µM

CCCS(=O)(=O)Nc1ccc(F)c(C(=O)c2c[nH]c3ncc(-c4ccc(Cl)cc4)cc23)c1F
viability, T/C (compound 0.0316 µM): 123% and 120% and 97.3% | viability, T/C (compound 0.1 µM): 110% and 106% and 109% | viability, T/C (compound 0.316 µM): 105% and 98.9% and 110% | viability, T/C (compound 1 µM): 113% and 136% and 117% | viability, T/C (compound 3.16 µM): 121% (2×) and 136% | viability, T/C (compound 10 µM): 141% and 162% and 187% | IC50 (curve of compound): > 10 µM
